Reference: patent US11466013B2 (Betta Pharmaceuticals Co., LTD, priority 2018, dated 2022)

Columns and labels:
ERK1 = ERK1 (Homo sapiens, UniProt P27361); experiment: Kinase assay (Caliper, FAM-labeled peptide), ERK1; type: biochemical
Description: (§1) The compound was diluted to the desired concentration with DMSO, transferred 100 μL to a 96-well plate, and performed a gradient dilution 10 μL of compound from each well was taken and mixed with 90 μL of kinase buffer, and then transferred 5 μL from each well to a 384-well plate. Kinase and FAM-labeled peptide and ATP were added to 1× kinase alkaline buffer to obtain 2.5× enzyme solution and 2.5× peptide solution, 10 μL of 2.5× enzyme solution was added to the 384-well assay plate. After incubating for 10 minutes at room temperature, 10 μL of 2.5× peptide solution was added to the 384-well plate. After reacting for a specific time at […], 25 μL of termination buffer was added to stop reaction. After reading the collected data on Caliper, the data was converted to inhibition percentage. Inhibition percentage=(maximum value−conversion value)/(maximum value−minimum value)*100.
(§2) The “maximum” is the DMSO control, the “minimum” indicates the low control.
(§3) Graphpad Prism software was used to perform curve fitting and obtain IC50 value.

ERK2 = ERK2 (Homo sapiens, UniProt P28482); experiment: Kinase assay (Caliper, FAM-labeled peptide), ERK2; type: biochemical
Description: as §1, §2, §3

Sequence of ERK1 (P27361 whole entry): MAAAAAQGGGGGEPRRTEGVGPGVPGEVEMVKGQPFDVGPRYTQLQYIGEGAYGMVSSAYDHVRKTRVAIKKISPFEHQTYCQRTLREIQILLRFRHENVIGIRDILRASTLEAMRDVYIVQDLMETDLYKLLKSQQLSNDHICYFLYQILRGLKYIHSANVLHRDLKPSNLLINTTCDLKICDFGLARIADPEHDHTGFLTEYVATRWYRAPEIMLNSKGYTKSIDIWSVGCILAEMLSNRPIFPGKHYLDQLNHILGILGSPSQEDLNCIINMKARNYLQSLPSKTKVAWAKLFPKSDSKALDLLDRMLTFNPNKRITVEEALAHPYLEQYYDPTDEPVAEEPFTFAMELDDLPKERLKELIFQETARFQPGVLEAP
Sequence of ERK2 (P28482 whole entry): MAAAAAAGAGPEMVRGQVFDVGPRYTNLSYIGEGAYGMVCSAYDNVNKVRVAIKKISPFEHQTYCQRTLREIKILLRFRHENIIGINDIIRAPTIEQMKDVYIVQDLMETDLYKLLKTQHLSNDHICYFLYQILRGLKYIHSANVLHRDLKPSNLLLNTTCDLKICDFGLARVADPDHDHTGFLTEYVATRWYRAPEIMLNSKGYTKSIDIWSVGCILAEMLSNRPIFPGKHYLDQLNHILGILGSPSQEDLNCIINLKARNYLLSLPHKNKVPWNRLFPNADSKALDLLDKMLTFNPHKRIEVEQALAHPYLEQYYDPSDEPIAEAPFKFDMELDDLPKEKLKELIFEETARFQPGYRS

| SMILES | IC50 (ERK1) [nM] | IC50 (ERK2) [nM] |
| --- | --- | --- |
| COC[C@H]1Cn2cc(-c3cc(NC(C)=O)ncc3Cl)cc2C(=O)N1Cc1cc(F)ccc1CO [Example 112, (R)-N-(5-chloro-4-(2-(5-fluoro-2-(hydroxymethyl)benzyl)-3-(methoxymethyl)-1-oxo-1,2,3,4-tetrahydropyrrolo [1,2-a]pyrazin-7-yl)pyridine-2-yl) acetamide] | 0.4 | 1 |
| COCC1Cn2cc(-c3cc(NC4CCN(C(C)=O)CC4)ncc3Cl)cc2C(=O)N1Cc1cc(F)ccc1CO (stereo not shown) [Example 110, 7-(2-((1-acetylpiperidin-4-yl)amino)-5-chloropyridine-4-yl)-2-(5-fluoro-2-(hydroxymethyl)benzyl)-3-(methoxymethyl)-3,4-dihydropyrrolo[1,2-a] pyrazine-1(2H)-one] | 0.6 | 0.7 |
| Cc1cnc(NC(C)C)nc1-c1cc2n(c1)CCN(Cc1cc(F)ccc1CO)C2=O [Example 123, 2-(5-fluoro-2-(hydroxymethyl)benzyl)-7-(2-(isopropylamino)-5-methylpyrimidin-4-yl)-3,4-dihydropyrrolo[1,2-a] pyrazine-1(2H)-one] | 0.53 | 0.44 |
| COC[C@H]1Cn2cc(-c3cc(NC(C)C)ncc3Cl)nc2C(=O)N1Cc1cc(F)ccc1CO [Example 46, (R)-2-(5-chloro-2-(isopropylamino)pyridin-4-yl)-7-(5-fluoro-2-(hydroxymethyl)benzyl)-6-(methoxymethyl)-6,7-dihydroimidazo[1,2-a]pyrazine-8-(5H)-one] | 2.8 | 1.4 |
| Cc1ccccc1Nc1ncc(C)c(-c2cc3n(c2)CCN(Cc2cc(F)ccc2CO)C3=O)n1 [Example 49] | 0.9 | 0.8 |
| COC[C@H]1Cn2cc(-c3cc(Nc4ccn(CC(F)F)n4)ncc3Cl)cc2C(=O)N1Cc1cc(F)ccc1CO [Example 114, (R)-7-(5-chloro-2-((1-(2,2-difluoroethyl)-1h-pyrazole-3-yl)amino)pyridine-4-yl)-2-(5-fluoro-2-(hydroxymethyl)benzyl)-3-(methoxymethyl)-3,4-dihydropyrrolo[1,2-a] pyrazine-1(2H)-one] | 1.3 | 1.3 |

Other lines, results leading:

| IC50 (ERK1) [nM] | IC50 (ERK2) [nM] | SMILES |
| --- | --- | --- |
| 1.3 | 1.4 | CC(C)Nc1cc(-c2cc3n(c2)CC2(COC(C)(C)OC2)CN(Cc2ccccc2CO)C3=O)c(Cl)cn1 [Example 26, 8-(5-Chloro-2-(isopropylamino)pyridin-4-yl)-2-(2-(hydroxymethyl)benzyl)-2′,2′-dimethyl-2,3-dihydro-1H,5H-spiro[pyrrolo[1,2-a][1,4]diazepine-4,5′-[1,3]dioxane]-1-one] |
| 0.3 | 0.32 | O=C1c2cc(-c3cc(NC4CCOC4)ncc3Cl)cn2CCN1Cc1cc(F)ccc1CO (stereo not shown) [Example 31, 7-(5-Chloro-2-((tetrahydrofuran-3-yl)amino)pyridin-4-yl)-2-(5-fluoro-2-(hydroxymethyl)benzyl)-3,4-dihydropyrrolo[1,2-a]pyrazine-1(2H)-one] |
| 1.5 | 1.2 | CC(C)Nc1cc(-c2cnc(C(=O)NCc3cccc(F)c3CO)s2)c(Cl)cn1 [Example 5, 5-(5-chloro-2-(isopropylamino)pyridin-4-yl)-N-(3-fluoro-2-(hydroxymethyl)benzyl) thiazole-2-formamide] |
| 3.1 | 0.9 | COCC1Cn2cc(-c3cc(NC4CCN(C(C)C)CC4)ncc3Cl)cc2C(=O)N1Cc1cc(F)ccc1CO (stereo not shown) [Example 73, 7-(5-chloro-2-((1-isopropylpiperidin-4-yl)amino)pyridine-4-yl)-2-(5-fluoro-2-(hydroxymethyl)benzyl)-3-(methoxymethyl)-3,4-dihydropyrrolo[1,2-a] pyrazine-1(2H)-one] |
| 0.31 | 0.2 | O=C1c2cc(-c3cc(NC4COC4)ncc3Cl)cn2CCN1Cc1cc(F)ccc1CO [Example 30, 7-(5-Chloro-2-(oxetan-3-ylamino)pyridin-4-yl)-2-(5-fluoro-2-(hydroxymethyl)benzyl)-3,4-dihydropyrrolo[1,2-a]pyrazine-1(2H)-one] |
